The assay concerns the target T1, human ODC (Homo sapiens, UniProt P11926).
T1 construct: His tag (from pET28a); made in house; host or cells: Escherichia coli BL21
T1 sequence (P11926 1-461): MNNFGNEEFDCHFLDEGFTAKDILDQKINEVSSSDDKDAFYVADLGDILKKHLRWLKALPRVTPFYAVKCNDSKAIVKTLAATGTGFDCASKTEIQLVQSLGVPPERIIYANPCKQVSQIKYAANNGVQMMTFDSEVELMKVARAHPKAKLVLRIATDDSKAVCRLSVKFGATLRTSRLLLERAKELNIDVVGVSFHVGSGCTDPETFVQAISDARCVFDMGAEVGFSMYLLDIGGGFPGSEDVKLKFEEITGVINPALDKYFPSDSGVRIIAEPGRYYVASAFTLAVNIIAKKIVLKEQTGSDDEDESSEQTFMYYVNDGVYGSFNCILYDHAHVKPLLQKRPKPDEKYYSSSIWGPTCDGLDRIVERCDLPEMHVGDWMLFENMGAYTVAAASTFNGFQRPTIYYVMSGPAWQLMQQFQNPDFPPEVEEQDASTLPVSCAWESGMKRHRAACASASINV
The experiment in a line: Detection of inhibitory activity of inhibitor for human ODC protein (absorbance at 426 nm, ODC inhibition ratio). Format: biochemical. To be noted: for inhibitory capacity on human ODC compared with DFMO: 1 mM of the medicament, comparison of histograms with DFMO inhibitor. The procedure:
400 uL substrate reaction mixture and 50 ug ODC protein are added to EP tube, mixed evenly, and the EP tube is placed in 37° C. water bath for 30 min; 400 uL 10% TDA is added to terminate the reaction, centrifuged 5 min at 5000 rpm at room temperature, then 100 uL supernatant is fetched and mixed with 200 uL of 4 mol/L NaOH, 400 uL of n-amyl alcohol is added to mix well, centrifuged 5min at 2000 rpm, then 200 uL of the supernatant is transferred to a new EP tube, and 200 uL of 0.1 mol/L sodium tetraborate (pH 8.0) is added to mix evenly, and 200 uL of 10 mmol/L trinitrobenzene sulfonic acid is added to mix fully, and then 400 uL DMSO is added to fix fully for 1 min, centrifuged 5 min at 3000 rpm; finally the supernatant is fetched to 96-well plate and its absorbance at 426 nm is detected by a microplate reader, to get the OD value with out adding […];
According to the method described in step 4), after adding 400 μL substrate reaction mixture, the ODC inhibitor is added immediately, and subsequent procedures are the same as the step 4);
The ODC inhibition ratio is calculated according to the following formula;
Control difference=the mean OD value of the control group adding the inhibitor−the mean OD value of the control group without adding inhibitor, of which, the inhibitor added in step 5) in the control group is DFMO inhibitor;
Experimental difference= the mean OD value of the experiment group adding the inhibitor−the mean OD value of the experiment group without adding inhibitor.
ODC inhibition ratio=[(control difference-experimental difference)/control difference]×100%.
The substrate reaction mixture in step 4): dissolve 17.57 ul β-mercaptoethanol, 55.84mg of 1.5 mM EDTA disodium salt, 75 nM PLP stock solution and 2 mM ornithine hydrochloride in 150 mM PBS (pH 7.1).
400 uL substrate reaction mixture (17.57 ul of β-mercaptoethanol, 55.84 mg of 1.5 mM EDTA disodium salt, 75 nM PLP stock solution, 2 mM ornithine hydrochloride are dissolved in 150 mM PBS (pH 7.1)) and 50 ug ODC protein are added to a 1.5 mL of EP tube, mixed evenly, and the EP tube is placed in 37° C water bath for 30 min; 400 uL 10% TDA is added to terminate the reaction, centrifuged 5 min at 5000 rpm at room temperature, then 100 uL supernatant is fetched and mixed with 200 uL of 4 mol/L NaOH, 400 uL of n-amyl alcohol is added to mix well, centrifuged 5 min at 2000 rpm then 200 uL of the supernatant is transferred to a new EP tube, and 200 uL of sodium tetraborate (0.1 mol/L, pH 8.0) is added to mix evenly, and 200 uL of 10 mmol/L trinitrobenzene sulfonic acid is added to mix fully, and then 400 uL DMSO is added to fix fully for 1 min, centrifuged 5 min at 3000 rpm, finally the supernatant is fetched to 96-well plate and its absorbance at 426 nm is detected by a microplate reader. […]

Turning to `COc1ccc(C(=O)C[n+]2ccccc2/C=N/[O-])cc1` [D19, 2-[(hydroxyimino)methyl]-1-[2-(4-methoxyphenyl)-2-oxoethyl] pyridinium], the “inhibitory capacity on human ODC compared with DFMO” value was “equivalent to that of 2.5 mM DFMO”.
On the same count and under the same terms, to `CCOC(=O)c1cccc(NC(=O)c2ccccc2)c1` [D17, ethyl-3-(benzoylamino) methyl benzoate] belongs “equivalent to that of 2.5 mM DFMO”.
For `CN(C)c1ccc(/C=N/Nc2nc(N)nc(N)n2)cc1` [4-(dimethylamino)-benzaldehyde-(4,6-diamino-1,3,5) triazine], the “inhibitory activity on human ODC” value (concentration range 1 nM-1 mM, histogram FIG. 9, compared with DFMO) is on record as “has inhibitory effect on human ODC activity within the concentration range of 1 nM-1 mM”.
Take `N#Cc1ccc(C2Nc3cccc4cccc(c34)N2)cc1`: the “inhibitory activity on human ODC” value (concentration range 1 nM-5 mM, histogram FIG. 5) was “has the ability to inhibit human ODC activity within the range of 1 nM-5 mM, and the higher the concentration, the stronger tire inhibitory ability”.

For the origin of these results see patent US20170314007A1, “MEDICAMENT DESIGN POCKET OF ORNITHINE DECARBOXYLASE AND APPLICATION OF MEDICAMENT DESIGN POCKET” (CHINA THREE GORGES UNIVERSITY, priority 2014, published 2017).
